According to patent publication US6593311B2, “Apoptosis inducers” (Takara Shuzo Co., Ltd., priority 1996, dated 2003):
Numbered stars: 1 amine (or outer) side, 2 acyl side, 3 side chain; on linkers, the order of the positions; unused ones are H or OH. Bridge positions count the residues as written; N and C are the ends. Square brackets hold non-standard residues; d marks the D form. Peptide text beside a SMILES is read from it. I, II: the chains in the order shown. Actinocin(9to1) = Cc1c2oc3c(C)ccc(C(=O)[*:1])c3nc-2c(C(=O)[*:2])c(N)c1=O; NMeV = CN[C@H](C(=O)O)C(C)C; Sar = CNCC(=O)O

Legend:
[1] = test system: Human premyelocytic leukemia cells HL-60; experiment: Viable count (Trypan Blue) and microscopic morphology of HL-60 cells; format: cell-based; details: Example 25; 10 μg/ml solution of actinomycin D; 20 hours
[2] = test system: Human acute lymphatic leukemia cells MOLT-3; experiment: DNA ladder detection by agarose gel electrophoresis in MOLT-3 cells; details: Example 23; 10 μg/ml solution of actinomycin D; 20 hours
[3] = test system: Human premyelocytic leukemia cells HL-60; experiment: DNA ladder detection by agarose gel electrophoresis in HL-60 cells
[4] = test system: Human colonic cancer cells HCT 116; experiment: Viable count (Trypan Blue) and morphology of HCT 116 cells; format: cell-based; details: Example 28; for cell morphology (characteristics of apoptosis) / change in cell count / viable count versus incubation time curve (FIG. 29): 0.5 mg/ml, autoclaved; for change in cell count / viable count versus incubation time curve (FIG. 29): 1 to 4 days; for effects of inducing apoptosis, filter-treated samples: 5 mg/ml solutions in PBS treated with a filter
Method: Then the suspension was pipetted into a 24-well plate (mfd. by FALCON) at a ratio of 1.8 ml/well. […] As a control, PBS alone was added in the same amount and incubation was effected in the same manner. 1, 2, 3 and 4 days after the initiation of the incubation, the viable cells were counted in accordance with the method described in “Soshiki Baiyo no Gijutsu” (second ed.), Asakura Shuppan, ed. by Nippon Soshiki Baiyo Gakkai, 26-28 (1990), namely, by the Trypan Blue staining method on a counting chamber.
In this figure, the abscissa refers to the incubation time (day) while the ordinate refers to the viable count (×10^4 cells /2 ml) in the culture medium. In FIG. 29, the open circle stands for the control (no addition), the solid circle stands for the sulfated-fucose-containing polysaccharide preparation obtained in Example 1 and the solid square stands for the sulfated-fucose-containing polysaccharide mixture obtained in Example 1.
Then the suspension was pipetted into a 24-well plate (mfd. by FALCON) at a ratio of 1.8 ml/well. […] As a control, PBS alone was added in the same amount and incubation was effected in the same manner. After the initiation of the incubation, the viable cells were counted with the passage of time in accordance with the method described in “Soshiki Baiyo no Gijutsu” (second ed.), Asakura Shuppan, ed. by Nippon Soshiki Baiyo Gakkai, 26-28 (1990), namely, by the Trypan Blue staining method on a counting chamber.

[5] = test system: Human acute lymphatic leukemia cells MOLT-3; experiment: Viable count (Trypan Blue) of MOLT-3 cells; format: cell-based; details: Example 24
Method: Then the suspension was pipetted into a 24-well plate (mfd. by FALCON) at a ratio of 1.8 ml/well. […] As a control, PBS alone was added in the same amount and incubation was effected in the same manner. 2, 4, 6 and 8 days after the initiation of the incubation, the cells were counted by the Trypan Blue staining method.
In this figure, the abscissa refers to the incubation time (day) while the ordinate refers to the viable count (×10^4 cells /2 ml) in the culture medium. In FIG. 28, the open circle stands for the control (no addition), the solid circle stands for the sulfated-fucose-containing polysaccharide-F obtained in Example 12, the open square stands for the sulfated-fucose-containing polysaccharide obtained in Example 1, the open triangle stands for that obtained in Example 17 and the solid square stands for that obtained in Example 15.

Compound	cell morphology (shrinkage and fragmentation) [1]	DNA ladders [2]	DNA ladders ([3]; Example 20, 10 μg/ml solution of actinomycin D, 20 hours)	DNA ladders ([3]; Example 35, Actinomycin D as substitute for F-Fd-4)	cell morphology (characteristics of apoptosis) [4]	change in cell count [4]	viable count versus incubation time curve (FIG. 29) [4]	effects of inducing apoptosis, filter-treated samples [4]	effects of inducing apoptosis, autoclaved samples ([5]; 0.5 mg/ml in PBS, autoclave 121° C. 20 minutes)	apoptosis induction and growth inhibition (viable count, FIG. 28) ([5]; 0.2 ml of 0.5 mg/ml solution per 1.8 ml well (text: concentration of 0.5 mg/ml), 2, 4, 6 and 8 days)	viable count versus incubation time curve (FIG. 28) ([5]; 2 to 8 days)
Cc1c2oc3c(C)ccc(C(=O)N[C@@H]4C(=O)N[C@H](C(C)C)C(=O)N5CCC[C@H]5C(=O)N(C)CC(=O)N(C)[C@@H](C(C)C)C(=O)O[C@@H]4C)c3nc-2c(C(=O)N[C@@H]2C(=O)N[C@H](C(C)C)C(=O)N3CCC[C@H]3C(=O)N(C)CC(=O)N(C)[C@@H](C(C)C)C(=O)O[C@@H]2C)c(N)c1=O [actinomycin D] (I: T[dV]P[Sar][NMeV] / II: T[dV]P[Sar][NMeV]; ester I:1-I:C, II:1-II:C; linker I:N-II:N via Actinocin(9to1))	the shrinkage and fragmentation of the cells were observed	DNA ladders were observed	DNA ladders were observed	DNA ladders were observed	–	–	–	–	–	–	–
dextran sulfate	–	–	–	–	showed characteristics of apoptosis such as the shrinkage and fragmentation of the cells	little increase or a decrease in cell count	substantially the same curve as the one of the sulfated-fucose-containing polysaccharide preparation of Example 1	the same results were obtained	the same results were obtained	induce the apoptosis of the MOLT-3 cells and considerably inhibit the growth of these cells	substantially the same curve as the one obtained by using the sulfated-fucose-containing polysaccharide of Example 15
heparin	–	–	–	–	showed characteristics of apoptosis such as the shrinkage and fragmentation of the cells	little increase or a decrease in cell count	substantially the same curve as the one of the sulfated-fucose-containing polysaccharide preparation of Example 1	the same results were obtained	–	–	–
